Test results reported in patent US12382888B2, “Compositions and methods for modulating immunity in plants” (Boyce Thompson Institute for Plant Research, Inc., priority 2013, dated 2025).
Entries after “also recorded” stand apart in the source; their conditions may differ.

System: Turnip Crinkle Virus (TCV)
Assay: Resistance of Arabidopsis to Turnip Crinkle Virus (coat protein immunoblot, symptoms)
Assay type: in vivo
Settings: root pretreatment 1 μM

CC1O[C@@H](O[C@@H](C)CCCCCCCCC(=O)O)C(O)C[C@H]1O (stereo in doubt) [ascr #18, (10R)-(3′R,5′R-dihydroxy-6′S-methyl-(2H)-tetrahydropyran-2-yloxy)-undecanoic Acid]
resistance to virulent TCV: dramatically enhanced resistance; also recorded: enhanced basal resistance | disease symptoms (chlorosis, lesions, suppression of inflorescent development) (6 dpi): greatly reduced | systemic spread of the virus (distal leaves): largely abolished | viral replication (amount of viral coat protein) (inoculated and distal leaves, immune blot): greatly reduced
